Measured values as given in patent publication US5223539A, “N,N-Di-alkyl(phenoxy)benzamide derivatives” (G. D. Searle & Co., priority 1991, dated 1993).

Columns and labels:
rabbit platelets [1] = assay: PAF-induced platelet aggregation; format: cell-based; conditions: Oryctolagus cuniculus, washed rabbit platelets, antagonist 60 sec before PAF, tracing height 60 sec after PAF
Protocol: (§1) Washed, [^3 H]serotonin-labeled rabbit platelets were prepared as previously described in COX, C. P., J. LINDEN and S. I. SAID: VIP elevates platelet cyclic AMP (cAMP) levels and inhibits in vitro platelet activation induced by platelet- activating factor (PAF). Peptides 5:25-28, 1984, and maintained in an atmosphere of 5% CO2 at 37° C. until used in the bioassay. Aliquots of platelets (2.5×10^8 /ml) were incubated with either an antagonist of PAF or the appropriate vehicle for 60 sec prior to the addition of PAF (0.2 nM to 0.2 mM). Aggregation was continuously monitored on a strip-chart recorder and recorded as the height of the tracing at 60 sec after the addition of PAF. Secretion of [^3 H]serotonin was measured in a sample of the platelet suspension removed at 60 sec after the addition of PAF. The percent inhibition of aggregation and secretion was calculated by comparing antagonist-treated platelets with the appropriate vehicle-treated control platelets. Each combination of antagonist and PAF was repeated 12-15 times, using several different platelet preparations. IC50 values were determined by inspection of the dose-response curves.

[2] = target: Human Platelet Membrane Receptors (PAF receptor) (Homo sapiens, UniProt P25105); conditions: for inhibition at 50 µM: read-out: Percent Inhibition of 3H-PAF binding at 50 μM
Protocol: INHIBITION OF ^3 H-PAF BINDING TO HUMAN PLATELET MEMBRANE RECEPTORS
Ten units of in-dated human packed platelets, each containing 45-65 ml platelet rich-plasma, were purchased from a commercial blood bank. Disposable plasticware was used throughout for receptor preparation. The units were pooled and a 1 ml aliquot was removed for determination of platelet concentration, using a Coulter Counter. The remaining platelet rich plasma was dispensed into 50 ml conical tubes and centrifuged at room temperature for 15 minutes at 3000 RPM (2300×g). Plasma was decanted and the platelets were resuspended in 35 ml of buffer (10 mM Trizma 7.0, 2 mM EDTA (dipotassium salt), and 150 mM KCl) and transferred to fresh tubes, which were centrifuged again as above. The platelets were washed 3 times, avoiding contaminating erythrocytes at the bottom of the pellets. Pellets were consolidated at each step, and by the last wash with EDTA/KCl buffer, most of the erythrocytes were in 1 tube. The pellets were resuspended in buffer containing 10 mM Trizma 7.0 with 10 mM CaCl2. Following centrifugation, the buffer was decanted and the pellets were resuspended in the CaCl2 buffer, avoiding erythrocyte contamination by recovering less than 100% of the platelet pellets. The resuspended platelets were dispensed in 8-10 ml aliquots into Corex tubes and disrupted by three cycles of freezing (dry ice/ethanol) and thawing (24° C.). The tubes were centrifuged at 40,000 × g for 20 minutes at 4° C. Supernatants were decanted and each pellet was resuspended in 5-7 ml 10 mM Trizma 7.0. All resuspended pellets were pooled and aliquots of about 1200 ml were dispensed into 1.5 ml microfuge tubes and frozen at -70° C. Protein content was determined by a fluorescamine protein assay.
Assay Methods: Receptor Characterization--Each receptor preparation was evaluated to determine the number of receptor populations, the number of PAF receptor equivalents/mg protein and the dissociation constant (KD) for PAF binding This required 2-3 experiments in which the protein concentration was held constant and the ^3 H-PAF ligand concentration was varied from approximately 0.10-2.5 nM and the data was analyzed by Scatchard methodology. Total incubation volume was 250 ml for these procedures and incubations were conducted at 24° C. for 30 minutes. For further experimentation, total incubation volumes are 500 ml. Protein and ligand concentrations were adjusted to give 0.075 nM receptor equivalents in the presence of 0.75 nM ^3 H-PAF. Each receptor preparation was then used to determine the dose - response displacement relationship of unlabeled PAF and the PAF antagonist, triazolam.
Assay Methods: Routine Assay of Compounds--The compounds were weighed precisely and solubilized in quantities of DMSO such that a 5 ml aliquot in the incubate would deliver the desired compound concentration. Compounds tested for the first time in this assay were evaluated at a concentration of 50 mM in the incubation medium. […] Triazolam was always included in each screening assay as a compound inhibition control. […] Nonspecific binding control solution was made by drying to completion about 26.2 ml unlabeled PAF under a stream of argon. PAF was resolubilized in 1000 ml DMSO. When delivered in a 5 ml aliquot, the final concentration of 1 mM PAF in the incubate exceeded by 1000-fold the concentration of ^3 H-PAF.
All buffers containing proteins were made at room temperature on the day of assay. Assay buffer was prepared by adding 125 mg human albumin to 25 ml of stock buffer (10 mM Trizma 7.4 with 20 mM CaCl2). Rinse buffer was made by adding 20 grams bovine serum albumin to 1000 ml stock buffer. About 80 ml of rinse buffer was decanted into a small pyrex dish and used to soak 65 Whatman GF/C 2.5 cm glass filters. The remaining rinse buffer was poured into a repipet and placed into an ice bath along with the filters.

rabbit platelets [3] = assay: PAF-induced platelet secretion ([3H]serotonin); format: cell-based; conditions: Oryctolagus cuniculus, washed [3H]serotonin-labeled rabbit platelets, antagonist 60 sec before PAF, sampled 60 sec after PAF
Protocol: as §1

Sequence of Human Platelet Membrane Receptors (PAF receptor) (P25105 whole entry): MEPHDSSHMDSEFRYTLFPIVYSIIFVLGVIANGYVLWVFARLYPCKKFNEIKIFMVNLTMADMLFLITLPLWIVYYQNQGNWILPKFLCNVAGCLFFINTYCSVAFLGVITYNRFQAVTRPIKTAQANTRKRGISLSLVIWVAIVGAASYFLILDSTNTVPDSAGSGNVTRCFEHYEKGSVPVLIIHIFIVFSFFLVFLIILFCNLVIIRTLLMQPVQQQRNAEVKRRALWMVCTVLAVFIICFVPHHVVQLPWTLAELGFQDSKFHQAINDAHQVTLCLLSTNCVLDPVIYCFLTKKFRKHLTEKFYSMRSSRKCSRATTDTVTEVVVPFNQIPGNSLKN

Row | Structure (SMILES) | IC50 (rabbit platelets [1]; 1 min) [nM] | IC50 [2] [nM] | IC50 (rabbit platelets [3]) [nM] | inhibition at 50 µM [2] [%] | inhibition of 3H-PAF binding by triazolam control at standard concentration ([2]; standard concentration of 50 mM (so in the source), 0.75 nM 3H-PAF) | IC50 (rabbit platelets [1]) [nM] | IC50 (rabbit platelets [3]; 1 min) [nM]
1 | COc1ccc(Oc2ccc(C(=O)N(C(C)C)C3CCCCC3)cc2)cc1OC [Example 6, N-cyclohexyl-4-(3,4-dimethoxyphenoxy)-N-(1-methylethyl)benzamide] | 100 to 1000 | 2010 | 85.9 |  |  |  | 
2 | COc1cc(Oc2ccc(C(=O)N(C(C)C)C3CCCCC3)cc2)cc(OC)c1OC [Example 1, N-cyclohexyl-N-(1-methylethyl)-4-(3,4,5-trimethoxyphenoxy)benzamide] | 10 to 100 | 133 | 8.9 |  |  |  | 
3 | COc1cccc(OCc2ccc(C(=O)N(C)C3CCCCC3)cc2)c1 [Example 22, N-cyclohexyl-4-[(3-methoxyphenoxy)methyl]-N-methylbenzamide] | 10000 to 100000 | 53200 | > 10000 |  |  |  | 
4 | COc1ccc(C(O)c2ccc(C(=O)N(C(C)C)C3CCCCC3)cc2)cc1OC (stereo not drawn) [Example 8, N-cyclohexyl-4-[(3,4-dimethoxyphenyl)hydroxymethyl]-N-(1-methylethyl)benzamide] | 10000 to 100000 |  | 2570 | 44 |  |  | 
5 | COc1ccc(Oc2ccc(C(=O)N(C3CCCCC3)C3CCCC3)cc2)cc1OC [Example 5, N-cyclohexyl-N-cyclopentyl-4-(3,4-dimethoxyphenoxy)benzamide] | 1000 to 10000 | 1500 | 4010 |  |  |  | 
6 | COc1cccc(Oc2ccc(C(=O)N(C(C)C)C3CCCCC3)cc2)c1 [Example 3, N-cyclohexyl-4-(3-methoxyphenoxy)-N-(1-methylethyl)benzamide] | 1000 to 10000 | 10500 | 750 |  |  |  | 
7 | COc1ccc(Oc2ccc(C(=O)N(C(C)C)C3CCCCC3)cc2)cc1 [Example 2, N-cyclohexyl-4-(4-methoxyphenoxy)-N-(1-methylethyl)benzamide] | 1000 to 10000 | 22100 | 1120 |  |  |  | 
8 | COc1cc(Oc2ccc(C(=O)N(C3CCCCC3)C3CCCC3)cc2)cc(OC)c1OC [Example 4, N-cyclohexyl-N-cyclopentyl-4-(3,4,5-trimethoxyphenoxy)benzamide] | 1000 to 10000 | 508 | 9.36 |  |  |  | 
9 | COc1ccc(Cc2ccc(C(=O)N(C3CCCC3)C3CCCC3)cc2)cc1OC [Example 11, N,N-dicyclopentyl-4-[(3,4-dimethoxyphenyl)methyl]benzamide] | 1000 to 10000 | 1480 | 114 |  |  |  | 
10 | Cc1nnc2n1-c1ccc(Cl)cc1C(c1ccccc1Cl)=NC2 [Triazolam, triazolam, reference compound] |  |  |  |  | approximately 50% |  | 
11 | COc1cc(Oc2ccc(C(=O)N(C3CCCCC3)C3CCCC3)cc2C)cc(OC)c1OC [Example 13, N-cyclohexyl-N-cyclopentyl-3-methyl-4-(3,4,5-trimethoxyphenoxy)benzamide] |  | 600 | 89.4 |  |  | < 1000 | 
12 | COc1cccc(OCc2ccc(C(=O)N(C(C)C)C3CCCCC3)cc2OC)c1 [Example 21, N-cyclohexyl-3-methoxy-4-[(3-methoxyphenoxy)methyl]-N-(1-methylethyl)benzamide] |  | 11200 |  |  |  |  | 
13 | COc1ccc(Oc2ccc(C(=O)N(C3CCCC3)C3CCCC3)cc2)cc1OC [Example 7, N,N-dicyclopentyl-4-(3,4-dimethoxyphenoxy)benzamide] | 1000 to 10000 | 914 | 422 |  |  |  | 
14 | COc1ccc(C(O)c2ccc(C(=O)N(C3CCCC3)C3CCCC3)cc2)cc1OC (stereo not drawn) [Example 10, N,N-dicyclopentyl-4-[(3,4-dimethoxyphenyl) hydroxymethyl]benzamide] |  |  |  | 47 |  | > 10000 | 1000 to 10000
15 | CC(C)N(C(=O)c1ccc(Oc2ccc3c(c2)OCO3)cc1)C1CCCCC1 [Example 18, N-cyclohexyl-4-(3,4-methylenedioxyphenoxy)-N-(1-methylethyl)benzamide] | 1000 to 10000 | 8160 | 1990 |  |  |  | 
16 | COc1cc(C(=O)N(C(C)C)C2CCCCC2)ccc1Oc1cc(OC)c(OC)c(OC)c1 [Example 19, N-cyclohexyl-3-methoxy-N-(1-methylethyl)-4-(3,4,5-trimethoxyphenoxy)benzamide] |  | 995 |  |  |  |  | 
17 | COc1cc(Cc2ccc(C(=O)N(C(C)C)C3CCCCC3)cc2)cc(OC)c1OC [Example 15, N-cyclohexyl-N-(1-methylethyl)-4-[(3,4,5-trimethoxyphenyl)methyl]benzamide] | 100 to 1000 | 425 | 26.6 |  |  |  | 
18 | COc1cc(C(=O)c2ccc(C(=O)N(C(C)C)C3CCCCC3)cc2)cc(OC)c1OC [Example 16, N-cyclohexyl-N-(1-methylethyl)-4-(3,4,5-trimethoxybenzoyl)benzamide] | 100 to 1000 |  | 103 |  |  |  | 
19 | COc1ccc(OCc2ccc(C(=O)N(C(C)C)C3CCCCC3)cc2OC)c(OC)c1 [Example 20, N-cyclohexyl-4-[(2,4-dimethoxyphenoxy)methyl]-3-methoxy-N-(1-methylethyl)benzamide] |  |  |  | 41 |  |  | 
20 | COc1ccc(C(O)c2ccc(C(=O)N(C3CCCCC3)C3CCCC3)cc2)cc1OC (stereo not drawn) [Example 9, N-cyclohexyl-N-cyclopentyl-4-[(3,4-dimethoxyphenyl)hydroxymethyl]benzamide] | 1000 to 10000 |  | 1490 | 61.9 |  |  | 
21 | COc1cc(OC)cc(Oc2ccc(C(=O)N(C(C)C)C3CCCCC3)cc2)c1 [Example 12, N-cyclohexyl-4-(3,5-dimethoxyphenoxy)-N-(1-methylethyl)benzamide] | 1000 to 10000 | 2710 | 142 |  |  |  | 
22 | COc1cc(OCc2ccc(C(=O)N(C)C3CCCCC3)cc2)cc(OC)c1OC [Example 23, N-cyclohexyl-N-methyl-4-[(3,4,5-trimethoxyphenoxy)methyl]benzamide] | 10000 to 100000 | > 50000 |  |  |  |  | 10000 to 100000
23 | COc1cc(OC)c(OC)cc1Cc1ccc(C(=O)N(C2CCCCC2)C2CCCC2)cc1 [Example 17, N-cyclohexyl-N-cyclopentyl-4-[(2,4,5-trimethoxyphenyl)methyl]benzamide] | 1000 to 10000 | 3710 | 632 |  |  |  | 
24 | COc1cc(C(O)c2ccc(C(=O)N(C(C)C)C3CCCCC3)cc2)cc(OC)c1OC (stereo not drawn) [Example 14, N-cyclohexyl-4-[hydroxy(3,4,5-trimethoxyphenyl)methyl]-N-(1-methylethyl)benzamide] | 100 to 1000 |  | 1810 | 49.2 |  |  | 
